From PubChem BioAssay AID179 (DTP/NCI, 2004)
Where “and” joins values, the source holds several entries; their conditions need not be identical. Equal entries are not always repeated. Calls of active or inactive are those of the source.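 How the source made its calls: active means compounds giving half or more protection of infected cells from virus-caused growth loss, again on retest; inactive means the rest.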

Test system: CEM cells HIV-1 protection, formazan growth assay
Assay: NCI AIDS Antiviral Assay
Settings: for IC50: measured here: growth of uninfected CEM cells
How it was run: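 Protection of CEM cells against HIV-1 was scored from cell growth (soluble formazan) across five concentrations, with parallel uninfected cells. Lack of protection may reflect toxicity.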

Row | SMILES | outcome | EC50 | IC50
1 | CC1(C2CCC3(C)C(C2)C3Sc2ccccc2)OCCO1 (configuration not stated) | inactive | – | –
2 | Clc1ccc(NCc2nnc(CCCCCCCCc3nnc(CNc4ccc(Cl)cc4)o3)o2)cc1 | – | > 200 µM | > 200 µM
3 | c1ccc2c3nnc(c2c1)SCCSCCCSCCS3 | – | > 200 µM | > 200 µM
4 | CC(C)c1cc(C(C)C)c(B(c2ccccc2)c2ccccc2)c(C(C)C)c1B(c1ccccc1)c1ccccc1 | – | > 100 µM | > 100 µM
5 | CC(=O)OCC1OC(n2c(C)cc(-c3ccco3)c(C#N)c2=S)C(OC(C)=O)C(OC(C)=O)C1OC(C)=O (configuration not stated) | – | 126 µM | > 200 µM
6 | COc1ccc2cc3n(c2c1)CCc1cc(OC)c(OC)cc1-3 | inactive | – | –
7 | CC(=O)Nc1ccc(/C=C(\C#N)c2ccc(C)cc2)cc1 | – | > 200 µM | > 200 µM
8 | O=Nc1c(O)cc(Nc2ccc(Br)cc2)c2ccccc12 | – | > 200 µM | 39.8 µM
9 | CN(C)CCC(CCN(C)C)=NOC(=O)c1ccccc1 | – | > 692 µM | > 692 µM
10 | C#CCOCC12C=CC(O1)C1C(=O)N(C)C(=O)C12 (configuration not stated) | – | > 200 µM | 74.1 µM and 182 µM
11 | C=C1C2CCC3(CCC4C5(C)CCCC4(CN(C(C)=O)C5)C3C2)C1O (configuration not stated) | inactive | – | –
12 | O=C(CC1(O)C(=O)Nc2c(Cl)cc(Cl)cc21)c1ccc(Cl)cc1 (configuration not stated) | inactive | – | –
13 | Nc1nc(Cl)c(N)c(NCC2(CO)CCCC2)n1 | – | > 200 µM | 102 µM
14 | CCOC(=O)C(=CNC(=S)c1ccncc1)C(=O)OCC | – | > 200 µM | > 200 µM
15 | COc1cccc(/C=N/N=C(/N)NO)c1 | inactive | – | –
16 | N#Cc1nc(/C=C/c2cccnc2)oc1N | – | > 200 µM | > 200 µM
17 | Cc1cn(C2CC(O)C(CNC(=O)NO)O2)c(=O)[nH]c1=O (configuration not stated) | – | > 200 µM | > 200 µM
18 | CCOC(=O)c1cc2c(=O)cccnc2o1 | – | > 52.5 µM | > 52.5 µM
19 | O=C1NC2OCC(O)C(O)C2O1 (configuration not stated) | – | > 200 µM | > 200 µM
20 | O=c1oc2ccccc2c(O)c1/C=N/C(=S)NCCc1ccccc1 | – | > 200 µM | > 200 µM
21 | CN1CCN(C(=O)CCNC(=O)Cc2ccc(C(=O)c3ccccc3)cc2)CC1 | – | > 200 µM | 64.6 µM
22 | Cc1cccc2c3c(ccc12)C(=O)OC3=O | inactive | – | –

Row | SMILES | outcome | EC50 | IC50
23 | Clc1ccc(CNCCCNCc2ccc(Cl)cc2Cl)c(Cl)c1 | – | > 200 µM | 22.4 µM
24 | NNC(=O)c1c(SCc2ccccc2)nc2c3ccccc3ccn12 | – | > 200 µM | 15.8 µM
25 | CCOC(=O)c1nc2cc(C(F)(F)F)ccc2nc1Nc1ccc(OC)c(OC)c1 | inactive | – | –
26 | CN(C)CCCN1CCC2(CCSCC2)C1 | – | > 186 µM | 87.1 µM
27 | COc1nc(N)nc2c1CSc1ccccc1-2 | – | > 77.6 µM | > 77.6 µM
28 | COCCCNC1=C(C#N)C(=O)NC(c2cccc([N+](=O)[O-])c2)S1 (configuration not stated) | – | > 269 µM | 39.8 µM
29 | Clc1cccc2c(N3CC3)cnnc12 | inactive | – | –
30 | CCCCCCCCCCOC(=O)NCCC | inactive | – | –
31 | C/C(=C\c1ccc([N+](=O)[O-])cc1)C(=O)O | – | > 174 µM | > 174 µM
32 | OC(c1ccc(C(F)(F)F)cc1)C(F)(F)c1nc2ccccc2o1 (configuration not stated) | – | > 200 µM | > 200 µM
33 | CSC(=NC(=O)c1ccccc1)SCCSC(=NC(=O)c1ccccc1)SC | – | > 2.34 µM | > 2.34 µM
34 | CC(C)(C)OC(=O)NNCC(O)COc1ccccc1 (configuration not stated) | – | > 200 µM | 91.2 µM
35 | Cc1c(C(=O)NCCO)[n+](=O)c2ccccc2n1[O-] | – | > 135 µM | > 135 µM
36 | O=C(O)c1c[nH]c2cc(O)ccc2c1=O | – | > 200 µM | > 200 µM
37 | O=C(C(Cl)=C(Nc1ccccc1)Nc1ccccc1)C(Cl)Cl | – | > 200 µM | 19.5 µM
38 | CCOP(=O)(OCC)/C(=C\n1c(=S)[nH]c2cc(C)ccc21)C(=O)OC | – | > 200 µM | > 200 µM
39 | Cc1cc(=O)oc2c3c(cc(OCc4ccccc4)c12)OC(C)(C)[C@H](OC(=O)C12CCC(C)(C(=O)O1)C2(C)C)[C@@H]3OC(=O)C12CCC(C)(C(=O)O1)C2(C)C (some centres not stated) | – | > 200 µM | 44.7 µM
40 | Cc1ccc(C)c(C[P+](c2ccccc2)(c2ccccc2)c2ccccc2)c1 | – | > 200 µM | 0.977 µM
41 | CC1CN=C(N(C(=O)Nc2ccc(F)c(Cl)c2)c2ccccc2)S1 (configuration not stated) | inactive | – | –
42 | COc1ccc2c(=O)c(O)c(-c3ccccc3)oc2c1 | – | > 66.1 µM | 12.3 µM
43 | O=[N+]([O-])c1cc2ccc(O)cc2c2ccccc12 | – | 51.3 µM | 61.7 µM
44 | Cc1cccc(C)c1NC(=O)C(=O)C(c1ccccc1Cl)S(=O)(=O)Cc1ccccc1Cl (configuration not stated) | – | 151 µM | > 200 µM

Row | SMILES | outcome | EC50 | IC50
45 | C=C[C@@H]1C(CO)=CCC2[C@H]1CCC1C(C)(C)C(=O)CC[C@]21C (some centres not stated) | – | > 200 µM | > 200 µM
46 | N/N=C(\c1nc2ccc([N+](=O)[O-])cc2[nH]c1=O)C(O)c1ccc(Cl)c(Cl)c1 (configuration not stated) | – | > 339 µM | 145 µM
47 | Cc1cc2c(Br)cc(Br)c(O)c2nc1C(=O)c1ccccc1 | – | > 4.79 µM | > 4.79 µM
48 | O=C(Nc1ccc(Cl)c(C(F)(F)F)c1)C(=O)C(C(=O)/C=C/c1ccccc1)C1OC(=O)c2ccccc21 (configuration not stated) | – | > 129 µM | 20.9 µM
49 | COC(=O)c1c/c(=N\NC(=O)CC(=O)Nc2ccccc2Cl)c2ccccc2o1 | – | 166 µM | 302 µM
50 | C[C@]12CCC[C@H](Cl)C1(O)C[C@H](C(=O)O)CC2 (some centres not stated) | inactive | – | –
51 | C/C=N\n1c(C)c(C#N)c(C#N)c1N | – | > 200 µM | > 200 µM
52 | Cc1ccc2cc1NC(=O)N1CCN(CC1)C(=O)Nc1cc(ccc1C)NC(=O)N1CCN(CC1)C(=O)N2 | – | > 3.8 µM | > 3.8 µM
53 | Cc1nc2ccc(S(=O)(=O)Nc3ccc(Cl)cc3)cc2c(=O)n1NC(=O)CNc1ccc(Cl)cc1 | – | > 200 µM | > 200 µM
54 | O=C1CS(=O)(=O)C(c2cccc(Cl)c2)N1N1C(=O)CS(=O)(=O)C1c1cccc(Cl)c1 (configuration not stated) | – | > 200 µM | > 200 µM
55 | O=C(Nc1c(Cl)cc([N+](=O)[O-])cc1Cl)C(=O)C(C1OC(=O)c2ccccc21)[N+](=O)[O-] (configuration not stated) | – | > 57.5 µM | > 57.5 µM
56 | CCN(CC)CC1CN=C(N)O1 (configuration not stated) | – | > 200 µM | > 200 µM
57 | COc1nc(NC2OC(COC(C)=O)C(OC(C)=O)C(OC(C)=O)C2OC(C)=O)c(N=CC=Nc2c(NC3OC(COC(C)=O)C(OC(C)=O)C(OC(C)=O)C3OC(C)=O)nc(OC)[nH]c2=O)c(=O)[nH]1 (configuration not stated) | inactive | – | –
58 | Cc1cc(Br)c(N2C3=C(CC4=C2CCCC4=O)C(=O)CCC3)c(Br)c1 | – | > 100 µM | 21.9 µM
59 | CCCCCC=C(c1ccc(OC)c(C(=O)OC)c1)c1ccc(OC)c(C(=O)OC)c1 | – | > 200 µM | 27.5 µM
60 | COC(=O)/C(=N\Nc1nnc(C)n1N)C(C#N)c1ccc(Cl)cc1 (configuration not stated) | – | > 724 µM | 372 µM
61 | CCOC(=O)/C(Cc1cc(=O)n(C)c2ccccc12)=N\Nc1ccccc1 | – | > 200 µM | > 200 µM
62 | OC[C@H]1CC(c2nn[nH]n2)[C@H](O)[C@@H]1O (some centres not stated) | – | > 200 µM | > 200 µM
63 | CN(C)CCCN1C(=O)C2CCC(C)(C1=O)C2(C)C (configuration not stated) | – | > 832 µM | 12.9 µM
64 | COC(=O)C12CN(C)CC(C(=O)OC)(C1=O)C(c1ccccc1)OC2c1ccccc1 (configuration not stated) | inactive | – | –
65 | O=c1c2cc([N+](=O)[O-])ccc2[nH]n1Cc1ccccn1 | – | > 200 µM | > 200 µM
